According to PMC3578765 (PLoS Neglected Tropical Diseases, 2013):
“Also recorded” adds a separate entry of the source. Read-outs that look alike come from different tables or passages of the source.

Legend:
[1] = tested on: DENV1 (Den1 BR/90) infection in Huh-7.5; test: image-based dengue HT/HCA, 10-pt dose-response hit confirmation, DENV1; format: cell-based; settings: Dengue virus, read-out: EC50 DENV1
Experimental: (§1) An immunofluorescence assay (IFA) used to detect dengue infection was optimized for the dengue HT/HCA. Briefly, cells were fixed with 4% (w/v) paraformaldehyde (PFA) for 20 min at room temperature (Rm T). PFA-fixed cells were treated with 0.25% (v/v) Triton-X for 20 min at Rm T. DENV-infected cells were detected by probing with 4G2 mAb prepared in blocking buffer: DPBS containing 5% FBS for 30 min at 37°C, followed by AlexaFluor-conjugated goat anti-mouse IgG (H+L) (Invitrogen Molecular Probes, USA) prepared in blocking buffer for 30 min at 37°C. Cell nuclei counterstained with 5 µg/mL 4′,6-diamidino-2-phenylindole (DAPI, Sigma-Aldrich, USA). Two washing cycles of DPBS was done after each step of the IFA. After the final washing, digital images were acquired using a high-throughput confocal fluorescence imaging system (Evotec Technologies High-Throughput Cell Analyzer Opera, Perkin Elmer, USA). The digital images were taken from 3 different fields of each well at 20× magnification.
(§2) Acquired images were analyzed using our in-house developed image-mining platform (IM). This platform is designed to do high-content screening and directly access the database of images that were sequentially analyzed with specially designed algorithms developed as a customized plug-in to the IM platform. The results of all the analyses were stored in a centralized database. […] One channel (DAPI-channel) captures the signal emitted by DAPI-stained nuclei at 450 nm, while the other channel (A488-channel) captures the signal emitted by the AlexaFluor 488 dye bound to the dengue E protein-antibody complexes confined in the cytoplasm of dengue-infected cells at 540 nm. To define the percentage of dengue-infected cells and, conversely the non-infected cells, a modified watershed method was applied. Compared to the original watershed algorithm that uses the morphological gradient image, a weighted gradient image is used for the topographic surface, whose weights are defined as the ridge values computed from the eigen values of the original image. The percentage of non-infected cells, which is also defined as the percent inhibition or percent activity, is derived by using the formula: [1−(A488-positive cells/total cells)]×100%.
(§3) The BioFocus kinase inhibitor library were screened against DENV1, DEN2, DENV3 and DENV4 at 10 µM in 0.5% (v/v) DMSO. MOCK-infected Huh-7.5 and IFN-α2A (500 U/mL) were used as positive controls, and the 0.5% DMSO vehicle was used as negative control. Four sets of 15 384-well plates (13 plates designated for test compounds and 2 plates designated for DMSO vehicle control) were used for the primary screening of the BioFocus kinase inhibitor library against each dengue serotype. Each of the 4,000 compounds in the library was tested in single wells. For data normalization and quality control of the screening, each test compound plate contained 16 replicates of the positive and negative controls. After dispensing the test compounds IFN-α2A and DMSO vehicle in the 384-well plates, Huh-7.5 was mixed with DENV1, DENV2, DENV3, or DENV4 to achieve a M.O.I. of 0.5 and dispensed at 5×10^3 cells/well using the Thermo Scientific WellMate automated liquid dispenser. For the MOCK-infected Huh-7.5, the cells were mixed with VM and dispensed under the same conditions as previously stated. Virus infection in the presence of the compounds proceeded at 37°C, 5% CO2 for 96 hrs. Compound activity based on percent inhibition and cell toxicity was assessed by IFA and IM analysis as described above. Scatter-plot distribution of the entire screening was generated using TIBCO Spotfire 4.5.0 (TIBCO Software Inc., Somerville, MA).
(§4) The calculated activity was normalized to a percent inhibition (PI) based on the MOCK-infected cells (100% activity, or zero infection) and dengue-infected cells (0% activity, or maximum measured infection percentage) controls according to the formula: [drawing 1] where: PImeasured - percent inhibition of test compound […]

[2] = tested on: DENV2 (BR DEN2 01-01) infection in Huh-7.5; test: image-based dengue HT/HCA, 10-pt dose-response hit confirmation, DENV2; format: cell-based; settings: Dengue virus, DENV2, Huh7.5; Huh-7.5, M.O.I. 0.5, 96 hrs; read-out: EC50 DENV2
Experimental: as §1, §2, §3, §4

[3] = tested on: DENV3 (BR DEN3 290-02) infection in Huh-7.5; test: image-based dengue HT/HCA, 10-pt dose-response hit confirmation, DENV3; format: cell-based; settings: Dengue virus, DENV3, Huh7.5; Huh-7.5, M.O.I. 0.5, 96 hrs; read-out: EC50 DENV3
Experimental: as §1, §2, §3, §4

[4] = tested on: DENV4 (DEN4 TVP-360) infection in Huh-7.5; test: image-based dengue HT/HCA, 10-pt dose-response hit confirmation, DENV4; format: cell-based; settings: Dengue virus, DENV4, Huh7.5; Huh-7.5, M.O.I. 0.5, 96 hrs; read-out: EC50 DENV4
Experimental: as §1, §2, §3, §4

[5] = compound toxicity, resazurin reduction assay in uninfected Huh-7.5; format: cell-based; settings: human, uninfected Huh-7.5 cells, Huh-7.5 without viral infection, 10-pt DRC
Experimental: The hits identified from the primary screening were also tested at 10 µM against CHIKV-118-GFP infection in HuH-7 cells and evaluated by resazurin reduction assay (RRA). Resazurin (7-Hydroxy-3H-phenoxazin-3-one 10-oxide) is reduced to the red fluorescent resorufin by redox enzymes produced by viable cells, and is a good indication of metabolic capacity, and by extension cell viability. The amount of converted resorufin was measured as relative fluorescence readout (RFU) at excitation/emission of 531/572 nm using a fluorescence spectrophotometer (Victor^3 V Spectrophotometer, Perkin Elmer, USA). Briefly, cells were inoculated with CHIKV-118-GFP at an M.O.I. of 0.5 and seeded in 384-well plates containing reference and primary hit compounds and incubated under humidified conditions for 72 hrs at 37°C. Resazurin solution was added to a final concentration of 10 µM and further incubated for another 12 hrs prior to measurement of RFU. The percent activity of the compounds, reflected by the percent cell viability, was quantified by normalizing against the RFUs of MOCK-infected cells and CHIKV-118-GFP-infected cells. Compounds resulting in normalized RFU ≥70% were considered as positive hits for anti-CHIKV activity.
To confirm the compound activity against dengue viruses, the selected hits from the primary screening were tested in a 10-pt. DRC (2-fold serial dilution from 50 µM) using the same assay described for the dengue HT/HCA. Each concentration of the hit compounds was tested in duplicate wells. Data generated from image analysis of the 10-pt. DRC was plotted and analyzed using the non-linear regression formula: log (inhibitor) vs. response – […] (4 parameters) in GraphPad Prism 5.04. […] Compound toxicity was determined by testing the hit compounds in a 10-pt. DRC against Huh-7.5 in the absence of viral infection and measuring the cell viability using resazurin reduction assay as described above. […] Confirmed hits were selected based on their Selectivity Index (SI), a dimensionless value that indicates the magnitude between cytotoxic concentration and effective concentration, and is calculated as: SI = CC50/EC50.

[6] = tested on: DENV1, DENV2, DENV3 and DENV4 infection in Huh-7.5; test: image-based dengue HT/HCA, all four serotypes (primary screening and overall activity); format: cell-based, Dengue virus
Experimental: as §1
Acquired images were analyzed using our in-house developed image-mining platform (IM). This platform is designed to do high-content screening and directly access the database of images that were sequentially analyzed with specially designed algorithms developed as a customized plug-in to the IM platform. The results of all the analyses were stored in a centralized database. […]
The BioFocus kinase inhibitor library were screened against DENV1, DEN2, DENV3 and DENV4 at 10 µM in 0.5% (v/v) DMSO. […] Compound activity based on percent inhibition and cell toxicity was assessed by IFA and IM analysis as described above. […]
as §4

[7] = tested on: DENV1, DENV2, DENV3 and DENV4 in Huh-7.5; test: plaque reduction assay; format: cell-based, Dengue virus; settings: 25 µM, Huh-7.5, 30 pfu per well, 7 days
Experimental: Figure 5 Plaque reduction assay. Huh-7.5 cells grown in 24-well tissue culture plate were inoculated with 30 pfu DENV1, DENV2, DENV3 and DENV4 per well and incubated for 7 days in the presence of compound CND1203 at various concentrations. MOCK-infected wells were inoculated with VM only.

[8] = tested on: dengue virus infection (M.O.I. 5) in Huh-7.5; test: time-of-addition assay; format: cell-based; settings: 25 µM added at −2, 0, 0.5, 1, 2, 4 hpi, M.O.I. 5, data not shown
Experimental: Time-of-addition assay, a strategy to determine the stage of inhibition during the viral infection cycle, has been used to characterize the mode of action of some inhibitors of dengue viral entry (NITD Compound 6), viral replication (NITD-982) and early translation (NITD-2636), [47], [53]. The inhibitor is added at different time points during viral infection and monitored for expression of the viral proteins, replication of the genome or production of infectious progeny virions. […] Compound CND1203 was used for the time-of-addition assay, adding 25 µM at different time points (−2 hpi, 0 hpi, 0.5 hpi, 1 hpi, 2 hpi, 4 hpi) of the dengue virus infection (M.O.I. 5) in Huh-7.5. […] Aminothiazole-based compounds have previously been implicated in the inhibition of HCV replication by binding to an allosteric site on the viral polymerase. However, the structure of these active anti-HCV compounds differ from the 2-aminothiazole hit compounds reported in this study in terms of the substitutions on the scaffold. As a consequence, it is unlikely that our hit compounds interact with the viral polymerase.

[9] = tested on: BR DEN2 01-01 infection of Huh-7.5; test: assay validation with reference compounds, 10-pt DRC of percent infection; format: cell-based, Dengue virus; settings: Dengue virus, Huh7.5; percent infection normalized against DENV2-infected Huh-7.5, M.O.I. 0.5; read-out: IC50
Experimental: as §1, §2
(§5) In both validation experiments, Huh-7.5 was mixed with DENV1, DENV2, DENV3 or DENV4 at a M.O.I. of 0.5 or VM only for MOCK-infection and dispensed in designated wells using the Thermo Scientific WellMate automated liquid dispenser. For the first validation experiment, the statistical reliability of the dengue HT/HCA was determined by calculating the Z'-factor for the percent infection or percent inhibition. Briefly, the Z'-factor of a defined parameter is calculated using the formula: 1−[(3σp+3σn)/(|μp−μn|)], where the μp, μn, σp and σn are the means (μ) and standard deviations (σ) of the positive (p) and negative (n) controls. For the second validation experiment, the reference compounds were prepared in 2-fold serial dilutions and dispensed in duplicate wells in the 384-well plate, followed by the Huh-7.5 and DENV mixture (M.O.I. 0.5). Percent infection, percent inhibition, and percent cell number were determined using the customized IM platform plug-in. Scatter-plot distribution was generated using TIBCO Spotfire 4.5.0 (TIBCO Software Inc., Somerville, MA). The ten-point dose-response curves (10-pt DRCs) were plotted using the non-linear regression formula: log (inhibitor) vs. response – variable slope (4 parameters), available in GraphPad Prism 5.04 (GraphPad Software Inc., San Diego, CA). The top and bottom values of the reference compounds were unconstrained when the curve fittings of the 10-pt. DRCs were generated.

in vitro = settings: human
Experimental: Acquired images were analyzed using our in-house developed image-mining platform (IM). This platform is designed to do high-content screening and directly access the database of images that were sequentially analyzed with specially designed algorithms developed as a customized plug-in to the IM platform. The results of all the analyses were stored in a centralized database. […] To define the percentage of dengue-infected cells and, conversely the non-infected cells, a modified watershed method was applied. Compared to the original watershed algorithm that uses the morphological gradient image, a weighted gradient image is used for the topographic surface, whose weights are defined as the ridge values computed from the eigen values of the original image. The percentage of non-infected cells, which is also defined as the percent inhibition or percent activity, is derived by using the formula: [1−(A488-positive cells/total cells)]×100%.
as §5, with “The ten-point dose-response curves (10-pt DRCs) were plotted using the non-linear regression formula: log (inhibitor) vs. response – variable slope (4 parameters), available in GraphPad Prism 5.04 (GraphPad Software Inc., San Diego, CA).” left out
Similarly, the percent cell number was normalized based on the measured cell number in MOCK-infected (100% cell number) controls according to the formula: % cell number = (Cmeasured/μCMOCK-infect)×100%, where Cmeasured is the measured cell number in the test well and μCMOCK-infect is the average cell number in the MOCK-infected controls. The statistical validity of the dengue high-throughput screening was determined by calculating for the Z'-factor using the 0.5% DMSO-treatment and MOCK-infected Huh-7.5 as negative and positive controls, respectively. In addition, other parameters, including DRC of a reference compound, were used to evaluate the assay performance.

[10] = DENV1, Huh7.5, Huh-7.5, M.O.I. 0.5, 96 hrs

Row | Compound | EC50 [1, 10] [µM] | EC50 [2] [µM] | EC50 [3] [µM] | EC50 [4] [µM] | CC50 at 72 h [5] [µM] | antiviral activity against all four dengue serotypes [6] | formation of dengue virus plaques [7] | inhibition of dengue infection in time-of-addition assay [8] | EC50 ([1]; Huh7.5, 96 h) [µM] | IC50 [9] [µM] | CC50 (in vitro) [µM]
1 | COc1ccc(CC(N)c2csc(Nc3ncccn3)n2)cc1 (stereo not shown) [CND1201] | 0.9 | 7.6 | 2.6 | 5 | > 100 | strong antiviral activities against all four dengue serotypes |  |  |  |  | 
2 | NC(c1csc(Nc2ncccn2)n1)c1ccccc1Cl (stereo not shown) [CND1203] | 1.7 | 4.1 | 2.3 | 5 | > 100 | strong antiviral activities against all four dengue serotypes; also recorded: strong antiviral activity against all 4 dengue serotypes | blocked the formation of dengue virus plaques | none of the treatments inhibited dengue infection |  |  | 
3 | Nc1ccc(CC(N)c2csc(Nc3ncccn3)n2)cc1 (stereo not shown) [CND1243] |  | 6.2 | 1 | 7.2 | > 100 | strong antiviral activities against all four dengue serotypes |  |  | 4.1 |  | 
4 | NC(=O)c1ncn([C@@H]2O[C@H](CO)[C@@H](O)[C@H]2O)n1 [Ribavirin] |  |  |  |  |  |  |  |  |  | 42.4 | 50.4
